Results from publication PMC12029992, “Beyond-Rule-of-Five Compounds Are Not Different: In Vitro–In Vivo Extrapolation of Female CD-1 Mouse Clearance Based on Merck Healthcare KGaA Compound Set” (Pharmaceuticals, 2025).
Like-named read-outs stand apart in the source and are kept apart here.

Columns and labels:
female CD-1 mouse [1] = assay: IVIVE of mouse clearance from microsomes (well-stirred model, regression correction); conditions: for Fold obs. / pred. (mic.) CL,b,u - Kilford / in vitro (mic.) pred. CLint,b - Kilford / in vitro (mic.) pred. CLint,b,u - Kilford: Kilford fu,mic
Source text: (§1) Compounds with phase II metabolism were removed from the microsome set (N = 25). […] The following regression equations were derived for microsomes and hepatocytes, respectively: log predicted CLint = 0.8 * log scaled CLint + 0.6 and log predicted CLint = 0.6 * log scaled CLint + 0.8, with CLint expressed in mL/min/kg.
(§2) According to Sohlenius-Sternbeck et al., the following equations were used for IVIVE: scaled CLint,b=in vitro CLint∗microsomes/hepatocytes/gram of liver∗liver weight/body weight∗fu,p/fu,inc∗Rb
(§3) The physiological scaling factors, taken from Simcyp^TM version 13/1 (Certara), were 48 mg of microsomal protein per gram of liver (MPPGL), 101.7 × 10^6 hepatocytes per gram of liver (HPGL), a liver weight of 1.46 g, and a body weight of 0.025 kg. For microsomes and hepatocytes, fu,mic and fu,hep, were used as the unbound fraction in the incubation (fu,inc), respectively. predicted CLint,b=10^(log scaled CLint∗slope+intercept)
(§4) For microsomes, a slope of 0.8 and an intercept of 0.6 were used, and for hepatocytes, a slope of 0.6 and an intercept of 0.8, according to the regression equations derived above. predicted CL,b=pred. CLint,b∗QH/pred. Clint,b+QH
(§5) CLp/Rb observed CLint,b=QH∗obs. CL,b/QH−obs. CL,b
(§6) All unbound clearance terms were calculated by dividing the respective clearance by fu,p. predicted/observed CL,b,u=pred./obs. CL,b/fu,p
(§7) The above-described approach was applied for the IVIVE of clearance of the data set analyzed in this study. Additionally, in order to evaluate the impact of the Kilford calculations as a surrogate for the experimentally determined free fraction in the in vitro systems, clearance was extrapolated using the Kilford equations [16] using the same regression coefficients.

female CD-1 mouse [2] = assay: Pharmacokinetic studies in mice (IV clearance); assay type: in vivo; conditions: for in vivo obs. CL,b: blood clearance; for in vivo obs. CLint,b: blood intrinsic clearance; for in vivo obs. CLint,b,u: unbound blood intrinsic clearance
Experimental: Pharmacokinetic studies were carried out after approval by the internal animal welfare board and in compliance with the local and international animal welfare regulations similarly to a method described previously. Generally, three or twelve CD-1 mice per study were dosed intravenously (0.2–1 mg/kg) using solution vehicles, predominantly 40% PEG 200 in 1% DMSO. For the majority of the studies, blood samples were taken retro-orbitally under inhalation of anesthesia (0.1, 0.5, 1, 2, 4, 6, and 24 h). For the remaining studies, blood sampling was performed both retro-orbitally (0.1, 0.5, 1, 2, and 24 h) and from the saphenous vein (4 and 6 h) (N = 51), from the dorsal metatarsal vein (N = 34), or submandibularly (N = 12). Plasma was obtained by centrifugation (10,000× g; 4 °C; 5 min) and stored at −20 °C until UHPLC-MS/MS analysis. By the addition of an ACN solution containing internal standard, the proteins were precipitated and dissevered by centrifugation. The concentration of the respective molecules studied was determined by a standard UHPLC-MS/MS method (generic method similar to the method described for the determination of CLint using experimentally determined compound MS tuning parameters). Plasma concentrations were determined for each time point sampled. Clearance was estimated from the AUC by non-compartmental analysis, which was performed using WinNonlin® (Princeton, NJ, USA). The geometric mean was used when more than one clearance value from different studies was available.
as §5, §6

female CD-1 mouse [3] = assay: IVIVE of mouse clearance from hepatocytes (well-stirred model, regression correction); conditions: for Fold obs. / pred. (hep.) CL,b,u - Kilford / in vitro (hep.) pred. CLint,b - Kilford / in vitro (hep.) pred. CLint,b,u - Kilford: Kilford fu,hep
Source text: as §1, §2, §3, §4, §5, §6, §7

Caco-2 cells (TC7 clone) = assay: Caco-2 assay (permeability, efflux ratio); assay type: in vitro ADME
Experimental: Reagents and Materials: Phosphate Buffer 20mM pH 7.4: EMS, Art No. 11601-40; DMSO Merck Art. No. 102950; Acetonitrile Merck, Art. No. 100030, Methanol Merck Art. No.
106007; Formic Acid Merck Art.No.100264; Acetonitrile Merck Art. No.10030; Filtration Plate Millipore MultiScreen HTS HV 0.45uM; 96 Well Millipore Art. No. MSHVN4510; Column Waters XBridge Column C8 3.5μm (Waters Cat. No. 186003053); HPLC vials VWR Cat. No. 5480028; Micro-Inserts VWR Cat. No. 548-0006; Screw caps VWR Cat. No.
The Caco-2 assays were performed in a transwell assay setup using Caco-2 cells (TC7 clone). The Caco-2 cells were seeded into the apical wells (125000 cells per well) in DMEM (Dulbecco’s Modified Eagle’s Medium) with 20% FBS (fetal bovine serum) into Corning 24-well transwell plates and cultured for 14-21 days. Prior to the experiment, the plates were washed with HBSS (Hanks' Balanced Salt Solution). Apparent permea-bility Papp was determined from apical-to-basolateral (Papp,AB) by adding 1 […] in HBSS into the apical compartment and HBSS in the basolateral compart-ment, and vice versa for Papp,BA from basolateral-to-apical. Apical volumes were 250 μL, basolateral volumes were 750 μL. DMSO content was <1 % (v/v) in all wells. Monolayer tightness was controlled using melagatran as tightness marker.
Samples were taken from both compartments at timepoint t0 and after 2 hours incuba-tion at 37 °C in 5% CO2 and 100% humidity, and analyzed via UHPLC-MS/MS. The ap-parent permeability Papp was calculated as follows:
P௔௣௣ = Δc௥௘௖Δt∙ V௥௘௖A x cௗ௢௡,଴
Where ∆crec/∆t is the change of concentration in the receiver compartment over the incu-bation time (i.e. 2 hours), Vrec is volume of the receiver compartment, cdon,0 is the concen-tration in the donor compartment at time t0, and A is the surface of the membrane on which the cells grew (i.e. 0.33 cm²).
Mass balance was checked after the experiment by determining the recovery after the […]
Recovery = nௗ௢௡,௘௡ௗ + nௗ௢௡,௥௘௖= cௗ௢௡,௘௡ௗ ∙Vௗ௢௡ + c௥௘௖ ,௘௡ௗ ∙V௥௘௖
The efflux ratio (ER) describes affinity towards efflux transporters:
The geometric mean of Papp,AB and Papp,BA was used as passive permeability Papp,pass.

[4] = microsomes, experimental fu,mic
[5] = hepatocytes, experimental fu,hep

| Fold obs. / pred. (mic.) CL,b,u - Kilford (female CD-1 mouse [1]; microsomes) | in vitro (mic.) pred. CLint,b - Kilford (female CD-1 mouse [1]; microsomes) | in vitro (mic.) pred. CLint,b,u - Kilford (female CD-1 mouse [1]; microsomes) | Fold obs. / pred. (mic.) CL,b,u - exp. fu,mic (female CD-1 mouse [1]; [4]) | in vitro (mic.) pred. CLint,b - exp. fu,mic (female CD-1 mouse [1]; [4]) | in vitro (mic.) pred. CLint,b,u - exp. fu,mic (female CD-1 mouse [1]; [4]) | in vivo obs. CL,b (female CD-1 mouse [2]) | in vivo obs. CLint,b (female CD-1 mouse [2]) | in vivo obs. CLint,b,u (female CD-1 mouse [2]) | Fold obs. / pred. (hep.) CL,b,u - Kilford (female CD-1 mouse [3]; hepatocytes) | in vitro (hep.) pred. CLint,b - Kilford (female CD-1 mouse [3]; hepatocytes) | in vitro (hep.) pred. CLint,b,u - Kilford (female CD-1 mouse [3]; hepatocytes) | Fold obs. / pred. (hep.) CL,b,u - exp. fu,hep (female CD-1 mouse [3]; [5]) | in vitro (hep.) pred. CLint,b - exp. fu,hep (female CD-1 mouse [3]; [5]) | in vitro (hep.) pred. CLint,b,u - exp. fu,hep (female CD-1 mouse [3]; [5]) | CaCo-2 Efflux ratio ER (Caco-2 cells (TC7 clone)) | CaCo-2 Papp Passive (Caco-2 cells (TC7 clone); apparent passive permeability) | other results | Structure (SMILES) |
| --- | --- | --- | --- | --- | --- | --- | --- | --- | --- | --- | --- | --- | --- | --- | --- | --- | --- | --- |
| 0.5 | 5.69 mL/min/kg | 334.02 mL/min/kg | 0.5 | 5.96 mL/min/kg | 349.34 mL/min/kg | 2.83 mL/min/kg | 2.91 mL/min/kg | 170.57 mL/min/kg | 0.3 | 9.82 mL/min/kg | 576.00 mL/min/kg | 0.3 | 9.94 mL/min/kg | 582.73 mL/min/kg | 2.6 | 25.85 10e-6 cm/s |  | O=C(O)c1cc(-c2ccc(F)cc2F)ccc1O [MSC001] |
| 0.528 | 13.72 mL/min/kg | 179.53 mL/min/kg | 0.5 | 14.24 mL/min/kg | 186.35 mL/min/kg | 6.38 mL/min/kg | 6.81 mL/min/kg | 89.15 mL/min/kg | 0.356 | 21.81 mL/min/kg | 285.43 mL/min/kg | 0.36 | 21.48 mL/min/kg | 281.21 mL/min/kg | 1.4 | 31.60 10e-6 cm/s |  | CNC(=O)c1cc(Oc2ccc3nc(N[C@@H]4CCCC[C@H]4O)sc3c2)ccn1 [MSC003] |
| 1.3 | 148.30 mL/min/kg | 772.42 mL/min/kg | 1.1 | 214.87 mL/min/kg | 1119.12 mL/min/kg | 77.00 mL/min/kg | 317.36 mL/min/kg | 1652.94 mL/min/kg | 1.5 | 99.13 mL/min/kg | 516.30 mL/min/kg | 1.5 | 103.91 mL/min/kg | 541.18 mL/min/kg | 48.4 | 2.67 10e-6 cm/s |  | COc1cccc(OCCCN)c1-c1cc(Nc2cnc(C#N)cn2)n[nH]1 [MSC020] |
| 1.7 |  |  |  |  |  | 63.61 mL/min/kg | 169.91 mL/min/kg | 3658.76 mL/min/kg | 1.4 |  |  |  |  |  |  |  | in vitro (mic.) pred. CLint,b - Kilford (female CD-1 mouse [1]; from microsomes): 59.38 mL/min/kg; in vitro (mic.) pred. CLint,b,u - Kilford (female CD-1 mouse [1]; from microsomes): 1278.61 mL/min/kg; in vitro (mic.) pred. CLint,b - exp. fu,mic (female CD-1 mouse [1]; from microsomes, exp. fu,mic): 127.90 mL/min/kg; in vitro (mic.) pred. CLint,b,u - exp. fu,mic (female CD-1 mouse [1]; from microsomes, exp. fu,mic): 2754.05 mL/min/kg; Fold obs. / pred. (mic.) CL,b,u - exp. fu,mic (female CD-1 mouse [1]; microsomes, exp. fu,mic): 1.1; in vitro (hep.) pred. CLint,b - Kilford (female CD-1 mouse [3]; from hepatocytes): 83.55 mL/min/kg; in vitro (hep.) pred. CLint,b,u - Kilford (female CD-1 mouse [3]; from hepatocytes): 1799.14 mL/min/kg; in vitro (hep.) pred. CLint,b - exp. fu,hep (female CD-1 mouse [3]; from hepatocytes, exp. fu,hep): 89.51 mL/min/kg; in vitro (hep.) pred. CLint,b,u - exp. fu,hep (female CD-1 mouse [3]; from hepatocytes, exp. fu,hep): 1927.40 mL/min/kg; Fold obs. / pred. (hep.) CL,b,u - exp. fu,hep (female CD-1 mouse [3]; hepatocytes, exp. fu,hep): 1.3; CaCo-2 Efflux ratio ER (Caco-2 cells (TC7 clone); Caco-2): 1.0; CaCo-2 Papp Passive (Caco-2 cells (TC7 clone); Caco-2): 24.10 10e-6 cm/s | N#Cc1c[nH]c2c(C(=O)N3CCN(CCc4ccc(F)cc4)CC3)cccc12 [MSC213] |
